Laboratory results as given in patent US9408924B2, “Bioconjugates of cyanine dyes” (LI-COR, INC., priority 2010, dated 2016).
Blank lines part the entries; values can stand above or below the compound they belong to.

How the values were obtained:
[1] = Photostability comparison on nitrocellulose membrane; assay type: physicochemical; conditions: dye-labeled GAR on nitrocellulose; repeated Odyssey scans; normalized to time zero
Procedure: Test samples were prepared by spotting equimolar amounts of dye (i.e., goat anti-rabbit (GAR) secondary antibodies labeled with the appropriate dye) onto nitrocellulose membrane. The membrane was then scanned repeatedly on an Odyssey Infrared Imager, and the signal intensity was normalized to the control signal at time zero (FIG. 19A-B).

[2] = tested on: U87 tumor cells (integrins); test: In vivo optical imaging with 10-labeled cyclo(RGDfK) probe; set-up: species or system Mice
Procedure: The suitability of compound 10 for in vivo optical imaging was evaluated using an 10-labeled cyclo(Arg-Gly-Asp-D-Phe-Lys) (RGDfK) probe. This probe was specifically designed to target integrins. Integrins are cell surface heterodimeric glycoproteins important in cell adhesion and signal transduction. This receptor class is involved in tumor growth, tumor invasiveness, metastasis, tumor-induced angiogenesis, inflammation, osteoporosis, and rheumatoid arthritis.
Mice were implanted with U87 tumor cells. The animals were injected and imaged while the tumors were still extremely small. This provided a good test of how visible the tumors are over any background signal that the probe detected.
Tumors were excised, weighed, and imaged on a Pearl Imager (FIG. 3).

[3] = In vivo clearance study of carboxylate 10; set-up: species or system Nude mice
Procedure: Nude mice were used for the clearance study with the carboxylate and for the targeted agent evaluation. A dose of 2 nmol 10 was administered intravenously (IV) via the tail vein of the mouse and serial imaged over the next 48 h with the Pearl Impulse imaging system. Excised organs were evaluated to assess organs with the highest retention.

[4] = Absorption and emission of the dye; assay type: physicochemical
Procedure: Compound 9 (80 mg), 3-(2-carboxyethyl)phenylboronic acid (40 mg), and cesium carbonate (20 mg) were stirred into water (20 mL) under nitrogen at room temperature. Tetrakis(triphenylphosphine)palladium (0) (10 mg) were added to the reaction mixture. The mixture was refluxed for 4 h, and the solvent and volatile compounds then were evaporated under vacuum. The crude product was purified by flash chromatography on silica 60, 200-400 mesh, eluting with a 20/80 acetonitrile/water mixture. The purified compound 56 had λMeOH=680 nm, λPBS=672 nm, ε=160,000.
Fluorescence determinations were made at a fixed antibody concentration of 10 μg/mL in physiological buffer using dye-labeled goat anti-rabbit (GAR) conjugates prepared at LI-COR (FIGS. 13A-B and 14). A dye-labeled lactalbumin conjugate was also tested (FIG. 15).
20's absorbance and emission maximum is at 676 nm in aqueous solution and at 693 nm in methanol.

U87GM cells = test: Plate-based evaluation of cell binding (on-cell Western); conditions: <0.5 μM; in comparison to a specific targeted probe
Procedure: Compound 10/RGD and 10/EGF were prepared to be used in conjunction with 10 to estimate relative non-specific binding of the dye relative to a labeled targeted agent. The on-cell Western was the format used and imaged on the Odyssey Sa.
In a plate-based evaluation of 10/RGD on U87GM cells, 10 was added to assess level of cell binding (FIG. 27).

A431 subcutaneous tumors = test: In vivo dose testing of 10/EGF; set-up: species or system nude mice; conditions: excised organs 48 h post injection
Procedure: Testing for optimal dose in nude mice bearing A431 subcutaneous tumors was done. Four doses were tested: 0.5, 1, 2, and 3 nmoles. Two mice were used per treatment dosage. A431 tumor cells were implanted on the right hip and allowed to reach approximately 0.5 cm. FIG. 31 presents dorsal views of all animals under a common LUT.

relative fluorescence on repeated scanning (photostability) [1]: unchanged
Structure (SMILES): C[Si](C)(CCC[N+](CCCS(=O)(=O)[O-])(CCCS(=O)(=O)[O-])CCCS(=O)(=O)[O-])O[Si]1(O[Si](C)(C)CCC[N+](CCCS(=O)(=O)[O-])(CCCS(=O)(=O)[O-])CCCS(=O)(=O)[O-])n2c3c4ccccc4c2N=C2N=C(N=c4c5ccccc5c(n41)=NC1=NC(=N3)c3ccccc31)c1cccc(OCCCOC(=O)NCCCCCC(=O)ON3C(=O)CCC3=O)c12.[Na+].[Na+].[Na+].[Na+] (centres unmarked) [Compound 700DX]

Structure (SMILES): CC1(C)C(/C=C/C(=C/C=C2\N(CCCS(=O)(=O)[O-])c3ccc(S(=O)(=O)[O-])cc3C2(C)C)c2cccc(CCC(=O)NCCCC[C@@H]3NC(=O)[C@@H](Cc4ccccc4)NC(=O)[C@H](CC(=O)[O-])NC(=O)CNC(=O)[C@H](CCCNC(=N)N)NC3=O)c2)=Nc2c1cc(Cl)c[n+]2CCCS(=O)(=O)[O-].[Na+].[Na+].[Na+] [Compound 21, Sodium 2-((2S,5R,8S,11S)-5-benzyl-8-(4-(3-(3-((1E,3Z,5Z)-1-(5-chloro-3,3-dimethyl-7-(3-sulfonatopropyl)-3H-pyrrolo[2,3-b]pyridin-7-ium-2-yl)-5-(3,3-dimethyl-5-sulfonato-1-(3-sulfonatopropyl)indolin-2-ylidene)penta-1,3-dien-3-yl)phenyl)propanamido)butyl)-11-(3-guanidinopropyl)-3,6,9,12,15-pentaoxo-1,4,7,10,13-pentaazacyclopentadecan-2-yl)acetate]
clearance and background ([2]; 1 nmol): cleared the system without an undue level of background | time post-injection by which tumors were visible ([2]; 1 nmol intravenously, two tumor-bearing mice): ≤ 5 h | detectability of tumors ([2]; 1 nmol, extremely small tumors (9 and 15 mg)): easily detectable

Structure (SMILES): CC1(C)C(/C=C/C(=C/C=C2/N(CCCS(=O)(=O)[O-])c3ccc(S(=O)(=O)[O-])cc3C2(C)C)c2cccc(CCC(=O)O)c2)=Nc2c1cc(Cl)c[n+]2CCCS(=O)(=O)[O-].[Na+].[Na+] [Compound 10]
time of signal spike ([3]; 2 nmol IV): about 1 hour | retention in the kidneys ([3]; 2 nmol IV, 44 hr period): very little retention in the kidneys, if at all | route of clearance ([3]; 2 nmol IV, 44 hr period): clears via the liver/gall bladder/intestinal tract | time by which total signal is dramatically reduced ([3]; 2 nmol IV, whole-image ROI): ≤ 4 h | retention in excised organs ([3]; 44 hr post injection, liver, heart, kidney, spleen, intestine, muscle, tumor): very little retention of probe | Extinction Coefficient ([4]; MeOH): 170,000 | Max. Abs. ([4]; MeOH): 680 nm | Max. Emis. ([4]; MeOH): 694 nm | Extinction Coefficient ([4]; PBS): 160,000 | Max. Abs. ([4]; PBS): 672 nm | Max. Emis. ([4]; PBS): 694 nm | level of cell binding (U87GM cells): low levels of cell binding | signal from the tumor cells (A431 subcutaneous tumors): very little signal from the tumor cells
